For two molecules, hemolysis results are on record in publication PMC8226839, “New Perspectives in the Antimicrobial Activity of the Amphibian Temporin B: Peptide Analogs Are Effective Inhibitors of Candida albicans Growth” (Journal of Fungi, 2021).

This series relates to sheep erythrocytes. As to conditions: 50 μg per disk, Columbia blood agar plates, 37 °C, 24 h.

Structures are written as SMILES. Square brackets hold non-standard residues; d marks the D form. Peptide text beside a SMILES is read from it.

Turning to `CC[C@H](C)[C@H](NC(=O)[C@@H]1CCCN1C(=O)[C@H](CC(C)C)NC(=O)[C@H](CC(C)C)NC(=O)[C@@H](CCCCN)NC(=O)[C@H](N)CCCCN)C(=O)N[C@H](C(=O)N[C@H](CCCCN)C(=O)N[C@@H](CC(N)=O)C(=O)N[C@@H](CC(C)C)C(=O)N[C@@H](CC(C)C)C(=O)N[C@H](CCCCN)C(=O)N[C@@H](CO)C(=O)N[C@@H](CC(C)C)C(=O)N[C@@H](CC(C)C)C(N)=O)C(C)C` [D-Lys_TB_KKG6K] (H-[dK][dK]LLPIV[dK]NLL[dK]SLL-NH2), the hemolysis entry is recorded as “did not induce the hemolysis”.
Next, `CC[C@H](C)[C@H](NC(=O)[C@@H]1CCCN1C(=O)[C@H](CC(C)C)NC(=O)[C@H](CC(C)C)NC(=O)[C@H](CCCCN)NC(=O)[C@@H](N)CCCCN)C(=O)N[C@H](C(=O)N[C@@H](CCCCN)C(=O)N[C@@H](CC(N)=O)C(=O)N[C@@H](CC(C)C)C(=O)N[C@@H](CC(C)C)C(=O)N[C@@H](CCCCN)C(=O)N[C@@H](CO)C(=O)N[C@@H](CC(C)C)C(=O)N[C@@H](CC(C)C)C(N)=O)C(C)C` [TB_KKG6K] (H-KKLLPIVKNLLKSLL-NH2): “did not induce the hemolysis”.
